Assays:
[1] = test system: pigs with autologous nucleus pulposus placed onto the sacrococcygeal cauda equina; assay: Series-3: nerve root conduction velocity 7 days after nucleus pulposus application, systemic TNF inhibitors; format: in vivo, pig; settings: for Effect on nucleus pulposus induced nerve injury: 7 days, systemic treatment; for NCV (m/s +/− SD): pig, 7 days after NP application, infliximab 100 mg i.v. preoperatively, etanercept 12.5 mg s.c. twice
Protocol: Series-3: Thirteen pigs had autologous nucleus pulposus placed onto their sacrococcygeal cauda equina similar to series-2. Five pigs (body weight 25 kg) received REMICADE® (infliximab) 100 mg i.v. preoperatively, and 8 pigs received ENBREL® (etanercept) 12.5 mg s.c. preoperatively and additionally 12.5 mg s.c. three days after the operation. Seven days after the nucleus pulposus-application the nerve root conduction velocity was determined over the application zone by local electrical stimulation according to series-2. Thirteen pigs had autologous nucleus pulposus placed onto their sacrococcygeal cauda equina similar to series-2. Five pigs (bodyweight 25 kg) received the human/murine monoclonal antibody, REMICADE® (infliximab, […]) 100 mg i.v. preoperatively, and 8 pigs received ENBREL® (etanercept, Centocor B.V., Leiden, the Netherlands) 12.5 mg s.c. preoperatively and additionally 12.5 mg s.c. three days after the operation. Seven days after the nucleus pulposus-application the nerve root conduction velocity was determined over the application zone by local electrical stimulation according to series-2. […] No non-treated animals were included in the series-3 due to the pre-existing knowledge of nerve conduction velocity after seven days of either nucleus pulposus or fat (control) application. The statistical difference between the groups, infliximab, and etanercept, nucleus pulposus without treatment (positive control from previous data) and application of retroperitoneal fat (negative control from previous data) was assessed by using ANOVA and Fisher's PLSD at 5%.

[2] = test system: nucleus pulposus-induced nerve root injury; settings: previous publications; cited from earlier work
[3] = test system: pigs with autologous nucleus pulposus applied to the sacrococcygeal cauda equina; assay: Example 6: nerve conduction velocity 3 days after application of nucleus pulposus mixed with inhibitors; format: in vivo; settings: pig; inhibitor mixed with NP before application (100 µg antibody each, 2 mg doxycycline)
Protocol: Fourteen pigs, (body weight 25-30 kg) received an intramuscular injection of 20 mg/kg body weight of KETALAR® (ketamine 50 mg/ml, Parke-Davis, Morris Plains, N.J.) and an intravenous injection of 4 mg/kg body weight of HYPNODIL® (methomidate chloride 50 mg/ml, AB Leo, Helsingborg, Sweden) and 0.1 mg/kg body weight of STRESNIL® (azaperon 2 mg/ml, Janssen Pharmaceutica, Beerse, Belgium). Anesthesia was maintained by additional intravenous injections of 2 mg/kg body weight of HYPNODIL® and 0.05 mg/kg body weight of STRESNIL®. The pigs also received an intravenous injection of 0.1 mg/kg of STESOLID NOVUM® (Diazepam, Dumex, Helsingborg) after surgery.
Nucleus pulposus was harvested from the 5th lumbar disc through a retroperitoneal approach. […]
Three days after the application, the pigs were reanaesthetized by an intramuscular injection of 20 mg/kg body weight of KETALAR® and an intravenous injection of 35 mg/kg body weight of PENTOTHAL® (Thiopental sodium, Abbott lab, Chicago, Ill.). […] Local tissue temperature was continuously monitored and maintained at 37.538.0. degree. […]
The person performing the neurophysiologic analyzes was unaware of the experimental protocol for the individual animal, and after finishing the complete study the data were arranged in the three experimental groups and statistical differences between the groups were assessed by Student's t-test. […]

Molecule: etanercept [ENBREL ®]
- Effect on nucleus pulposus induced nerve injury [1]: blocked the nucleus pulposus induced nerve injury efficiently
- NCV (m/s +/− SD) [1]: 78 +/− 14 m/s

Molecule: infliximab [REMICADE ®]
- Effect on nucleus pulposus induced nerve injury [1]: blocked the nucleus pulposus induced nerve injury efficiently
- NCV (m/s +/− SD) [1]: 79 +/− 15 m/s

Molecule: COc1ccc2c(c1)c(CC(=O)O)c(C)n2C(=O)c1ccc(Cl)cc1 [indomethacin]
- Block of nucleus pulposus-related effects [2]: slightly less efficiently

Molecule: cyclosporin A
- Block of nucleus pulposus-related effects [2]: blocked efficiently

Molecule: CCN(CC)CC(=O)Nc1c(C)cccc1C [lidocaine]
- Block of nucleus pulposus-related effects [2]: slightly less efficiently

Molecule: C[C@H]1c2cccc(O)c2C(=O)C2=C(O)[C@]3(O)C(=O)C(C(N)=O)=C(O)[C@@H](N(C)C)[C@@H]3[C@@H](O)[C@@H]21 [Doxycycline, doxycycline]
- Nerve conduction velocity (m/s) 3 days after application [3]: 53 +/− 22 m/s

— patent publication US8057792B2, “Use of an antibody that blocks TNF-alpha activity for treating a nerve disorder mediated by nucleus pulposus” (Sciaticon AB, priority 1998, dated 2011)
